Assay results reported in publication PMC11053683, “Tuning of the Anti-Breast Cancer Activity of Betulinic Acid via Its Conversion to Ionic Liquids” (Pharmaceutics, 2024).
Like-named read-outs stand apart in the source and are kept apart here.

How the values were obtained:
[1] = Estimation of the water solubility (DMSO stock diluted with deionized water until sediment); assay type: physicochemical; set-up: key: “5×”: weak; “10×”: middle; “20×”:good’; “50×”: very good; “100×”: excellent; settings: 1 mg in 100 μL DMSO, class by dilution factor
Protocol: The water solubility of betulinic acid and its derivatives was evaluated following the described method. For this purpose, 1 mg of the substance was dissolved in 100 μL of DMSO. The stock solution was diluted with 10 μL potions of deionized water until the sediment was observed. 10 μL portions were added to produce dilutions corresponding to 5 times, 10 times, 20 times, 50 times, and 100 times the original concentration.

[2] = Thermal stability by thermogravimetric analysis (TG); assay type: physicochemical
Protocol: The test was conducted in the 25–1000 °C temperature range at a heating rate of 10 ° min^−1 under air (flow rate of 25 cm^−3min^−1) and nitrogen (flow rate of 10 cm^−3min^−1). The weight of the samples was 5–7 mg.

MCF-7 cells [3] = experiment: MTT assay, cytotoxicity on MCF-7 cells
MCF-7 cells [4] = experiment: Colony formation (clonogenic) assay; assay type: cell-based, human; settings: for effect on MCF-7 colony formation: 2.5–12.5 µM
Protocol: Clonogenic assays were performed, and surviving fractions were calculated as described by Franken et al.. Briefly, MCF-7 cells were seeded in 6-well plates at a concentration of 500 cells/well and allowed to adhere for 48 h and subsequently treated with 2.5–12.5 µM concentration of BA and selected BA-ILs (Day 1). The BA and BA-ILs were replenished every 4 days. On Day 10, cells were fixed with 10% formalin in phosphate-buffered saline (PBS), pH 7.4 for 30 min at room temperature (RT), washed with PBS and stained with 0.1% Crystal violet solution in ddH2O, 30 min, RT, followed by a final thorough wash in ddH2O. The colonies were then imaged and analyzed with the open-source platform Fiji.

MCF-7 cells [5] = experiment: Cell morphology analysis by light microscopy; assay type: cell-based, human; settings: MCF-7, 72 h, concentration close to IC50
Protocol: The changes in cell morphology after a 72 h treatment with BA and [AAOEt][BA] were observed under an inverted microscope (MEIJI, Japan) with objective 10 (Phase DM, MEIJI, Japan) and camera Optikam B1 Digital (Optika, Ponteranica, Bergamo, Italy).

[6] = set-up: method as in PMID 28273859; settings: cited from earlier work
[7] = set-up: method as in PMID 28273859; settings: model of intestinal mucus, compared to known drugs; cited from earlier work
MCF-7 cells [8] = tested on: MCF-7 cells
MCF-10A cells = experiment: MTT assay, cytotoxicity on MCF-10A cells; assay type: cell-based, human; settings: 72 h
Protocol: The assay was conducted as described by Mosmann. […] Non-treated cancer cells were used as a control.

Compound | Water Solubility [1] | TDTGmax (maximum decomposition temperature) ([2]; TG, 25–1000 °C, 10 °/min) [°C] | IC50 (MCF-7 cells [3]; MCF-7, 72 h, MTT) [µM] | TTGonset (onset of the thermal degradation) [2] [°C] | further results
C=C(C)C1CCC2(C(=O)O)CCC3(C)C(CCC4C5(C)CCC(O)C(C)(C)C5CCC43C)C12.CCOC(=O)C(N)CCSC (centres unmarked) [[MetOEt][BA]] | weak | 358.6 | 7.5 ± 0.3 |  | TTGonset (onset of the thermal degradation) ([2]; TG, 25–1000 °C, 10 °/min): 125.7 °C; cytotoxicity / IC50 compared with BA (MCF-7 cells [3]; MCF-7, 72 h, MTT): IC50 values lower than that of BA
C=C(C)C1CCC2(C(=O)O)CCC3(C)C(CCC4C5(C)CCC(O)C(C)(C)C5CCC43C)C12.CCOC(=O)C(N)CCCCN (centres unmarked) [[LysOEt][BA]] | very good | 327.3 | 12.9 ± 0.3 | 144.0 | 
C=C(C)C1CCC2(C(=O)O)CCC3(C)C(CCC4C5(C)CCC(O)C(C)(C)C5CCC43C)C12.CCOC(=O)C(N)CS (centres unmarked) [[CysOEt][BA]] | middle | 359.2 | 9.6 ± 3.8 | 150.1 | 
C=C(C)C1CCC2(C(=O)O)CCC3(C)C(CCC4C5(C)CCC(O)C(C)(C)C5CCC43C)C12.CCOC(=O)C1CCCN1 (centres unmarked) [[ProOEt][BA]] | weak | 372.1 | 7.6 ± 1.8 | 121.6 | 
C=C(C)C1CCC2(C(=O)O)CCC3(C)C(CCC4C5(C)CCC(O)C(C)(C)C5CCC43C)C12.CCOC(=O)C(N)CO (centres unmarked) [[SerOEt][BA]] | middle | 364.1 | 12.2 ± 2.6 | 118.2 | 
C=C(C)[C@@H]1CC[C@]2(C(=O)O)CC[C@]3(C)[C@H](CC[C@@H]4[C@@]5(C)CC[C@H](O)C(C)(C)[C@@H]5CC[C@]43C)[C@@H]12 [BA, Betulinic acid] | weak | 358.7 |  |  | TTGonset (onset of the thermal degradation) ([2]; TG, 25–1000 °C, 10 °/min): 305.7 °C; effect on MCF-7 colony formation (MCF-7 cells [4]): did not inhibit MCF-7 colony formation; changes in cell numbers and morphology (MCF-7 cells [5]): reduction in cell numbers; bioavailability [6]: 2.3%; permeability classification [7]: moderate to poorly permeable; IC50 (MCF-7 cells [3]; Homo sapiens, MCF7, 72 h): 11.5 ± 1.8 µM
C=C(C)C1CCC2(C(=O)O)CCC3(C)C(CCC4C5(C)CCC(O)C(C)(C)C5CCC43C)C12.CCOC(=O)C(N)Cc1ccccc1 (centres unmarked) [[PheOEt][BA]] | middle | 360.1 | 12.3 ± 1.7 | 133.9 | cytotoxicity / IC50 compared with BA (MCF-7 cells [8]): cytotoxicity similar to BA
C=C(C)C1CCC2(C(=O)O)CCC3(C)C(CCC4C5(C)CCC(O)C(C)(C)C5CCC43C)C12.CCOC(=O)C(N)CC(C)C (centres unmarked) [[LeuOEt][BA]] |  | 359.4 | 7.5 ± 1.2 | 114.9 | 
C=C(C)C1CCC2(C(=O)O)CCC3(C)C(CCC4C5(C)CCC(O)C(C)(C)C5CCC43C)C12.CCOC(=O)C(N)Cc1c[nH]c2ccccc12 (centres unmarked) [[TrpOEt][BA]] | middle | 359.8 | 13.1 ± 0.4 |  | cytotoxicity / IC50 compared with BA (MCF-7 cells [8]): cytotoxicity similar to BA
C=C(C)C1CCC2(C(=O)O)CCC3(C)C(CCC4C5(C)CCC(O)C(C)(C)C5CCC43C)C12.CCOC(=O)CC(N)C(=O)OCC (centres unmarked) [[Asp(OEt)2][BA]] | middle | 357.4 | 8.9 ± 2.1 | 119.8 | 
C=C(C)C1CCC2(C(=O)O)CCC3(C)C(CCC4C5(C)CCC(O)C(C)(C)C5CCC43C)C12.CCOC(=O)C(N)Cc1ccc(O)cc1 (centres unmarked) [[TyrOEt][BA]] | weak | 354.4 | 14.2 ± 2.4 | 202.3 | cytotoxicity / IC50 compared with BA (MCF-7 cells [8]): cytotoxicity similar to BA
C=C(C)C1CCC2(C(=O)O)CCC3(C)C(CCC4C5(C)CCC(O)C(C)(C)C5CCC43C)C12.CCOC(=O)C(C)N (centres unmarked) [[AlaOEt][BA]] | weak | 370.7 | 12.7 ± 4.5 | 92.0 | 
C=C(C)C1CCC2(C(=O)O)CCC3(C)C(CCC4C5(C)CCC(O)C(C)(C)C5CCC43C)C12.CCOC(=O)C(N)C(C)O (centres unmarked) [[ThrOEt][BA]] | middle | 353.5 | 8.2 ± 2.4 | 109.0 | 
C=C(C)C1CCC2(C(=O)O)CCC3(C)C(CCC4C5(C)CCC(O)C(C)(C)C5CCC43C)C12.CCOC(=O)C(N)C(C)C (centres unmarked) [[ValOEt][BA]] | weak | 354.0 | 25.7 ± 0.8 | 116.8 | effect on MCF-7 colony formation (MCF-7 cells [4]): did not inhibit MCF-7 colony formation
C=C(C)C1CCC2(C(=O)O)CCC3(C)C(CCC4C5(C)CCC(O)C(C)(C)C5CCC43C)C12.C=C(C)C1CCC2(C(=O)O)CCC3(C)C(CCC4C5(C)CCC(O)C(C)(C)C5CCC43C)C12.CCOC(=O)C(N)CCCCN (centres unmarked) [[LysOEt][BA]2] | good | 368.8 | 4.8 ± 1.3 | 157.7 | cell specificity of action (MCF-10A vs MCF-7) (MCF-10A cells): did not show any cell specificity; IC50 (MCF-10A cells; MCF-10A): 4 µM; surviving fraction (cell clonogenicity) (MCF-7 cells [4]; MCF-7, 12.5 µM, vs non-treated control, Day 10): below 20%; clonogenic efficiency (MCF-7 cells [4]; MCF-7, compared to that of BA (abstract)): 20%; changes in cell numbers and morphology (MCF-7 cells [5]): cell rounding and shrinkage
C=C(C)C1CCC2(C(=O)O)CCC3(C)C(CCC4C5(C)CCC(O)C(C)(C)C5CCC43C)C12.CCOC(=O)C(N)C(C)CC (centres unmarked) [[IleOEt][BA]] | weak | 369.0 | 8.5 ± 1.3 | 127.5 | cytotoxicity / IC50 compared with BA (MCF-7 cells [8]): IC50 values lower than that of BA
